From PMC8398255, “Synthesis of 3,5-Bis(trifluoromethyl)phenyl-Substituted Pyrazole Derivatives as Potent Growth Inhibitors of Drug-Resistant Bacteria” (Molecules, 2021)
In brackets after ≈: the same amount, converted by molar mass.

Assays:
Type in all cases: cell-based
[1] = test system: Bacillus subtilis ATCC 6623 (Bs); test: MIC, microdilution (CLSI); settings: ATCC6623; Bs, Bacillus subtilis ATCC 6623; n = 3; read-out: MIC
Method: (§1) Compounds were dissolved in dimethyl sulfoxide (DMSO) to achieve a starting concentration of 32 µg/mL as described by us previously. Compounds were further diluted two-fold across the 96-well honeycomb plate columns in cation adjusted Mueller Hinton broth (CAMHB), and bacterial culture was added. Plates were incubated for 18–20 h at 35 ℃ before determining the minimum concentrations at which wells had no visible turbidity to the naked eye. The MIC values were determined from at least a duplicate result obtained from three independent experiments using fresh bacterial cultures on different days.

[2] = test system: E. faecalis ATCC 29212 (Ef12); test: MIC, microdilution (CLSI); settings: Enterococcus faecalis, ATCC29212; Ef12, antibiotic susceptible E. faecalis ATCC 29212; n = 3; read-out: MIC
Method: as §1

[3] = test system: E. faecalis ATCC 51299 (Ef99); test: MIC, microdilution (CLSI); settings: Enterococcus faecalis, ATCC 51299 / VRE; Ef99, vancomycin-resistant (VRE) E. faecalis ATCC 51299; n = 3; read-out: MIC
Method: as §1

[4] = test system: E. faecium ATCC 700221 (Ef21); test: MIC, microdilution (CLSI); settings: Enterococcus faecium, ATCC 700221 / VRE; Ef21, vancomycin-resistant (VRE) E. faecium ATCC 700221; n = 3; read-out: MIC
Method: as §1

[5] = test system: S. aureus ATCC 25923 (Sa23); test: MIC, microdilution (CLSI); settings: Staphylococcus aureus, ATCC25923; Sa23, antibiotic susceptible S. aureus ATCC 25923; n = 3; read-out: MIC
Method: as §1

[6] = test system: S. aureus ATCC 33591 (Sa91); test: MIC, microdilution (CLSI); settings: Staphylococcus aureus, ATCC33591; Sa91, methicillin-resistant S. aureus ATCC 33591; n = 3; read-out: MIC
Method: as §1

[7] = test system: S. aureus ATCC 33592 (Sa92); test: MIC, microdilution (CLSI); settings: Staphylococcus aureus, ATCC33592; Sa92, methicillin-resistant S. aureus ATCC 33592; n = 3; read-out: MIC
Method: as §1

[8] = test system: S. aureus ATCC 700699 (Sa99); test: MIC, microdilution (CLSI); settings: Staphylococcus aureus, ATCC700699; Sa99, methicillin-resistant S. aureus ATCC 700699; n = 3; read-out: MIC
Method: as §1

[9] = test system: S. aureus BAA-2312 (Sa12); test: MIC, microdilution (CLSI); settings: Staphylococcus aureus, BAA2312; Sa12, methicillin-resistant S. aureus BAA-2312; n = 3; read-out: MIC
Method: as §1

[10] = test system: S. epidermidis ATCC 700296 (Se); test: MIC, microdilution (CLSI); settings: Staphylococcus epidermidis, ATCC700296; Se, S. epidermidis ATCC 700296; n = 3; read-out: MIC
Method: as §1

Gram-positive bacteria = test: MIC across the tested strains; settings: for MIC: across the tested strains
Method: as §1

Structure (SMILES) | MIC [1] [µg/mL] | MIC [2] [µg/mL] | MIC [3] [µg/mL] | MIC [4] [µg/mL] | MIC [5] [µg/mL] | MIC [6] [µg/mL] | MIC [7] [µg/mL] | MIC [8] [µg/mL] | MIC [9] [µg/mL] | MIC [10] [µg/mL] | MIC (Gram-positive bacteria) [µg/mL] | antibacterial activity (Gram-positive bacteria; tested bacteria)
O=C(O)c1ccc(-n2cc(CNc3ccccc3)c(-c3cc(C(F)(F)F)cc(C(F)(F)F)c3)n2)cc1 [Compound 1, 4-[4-(Anilinomethyl)-3-[3,5-bis(trifluoromethyl)phenyl]pyrazol-1-yl] benzoic acid] | 2 (≈ 3.96 µM) | 8 (≈ 15.8 µM) | 4 (≈ 7.91 µM) | 4 (≈ 7.91 µM) | 4 (≈ 7.91 µM) | 4 (≈ 7.91 µM) | 4 (≈ 7.91 µM) | 4 (≈ 7.91 µM) | 2 (≈ 3.96 µM) | 8 (≈ 15.8 µM) | ≥ 2 | –
CC(C)(C)c1ccc(NCc2cn(-c3ccc(C(=O)O)cc3)nc2-c2cc(C(F)(F)F)cc(C(F)(F)F)c2)cc1 [Compound 3, 4-[3-[3,5-Bis(trifluoromethyl)phenyl]-4-[(4-tert-butylanilino)methyl]pyrazol-1-yl] benzoic acid] | 2 (≈ 3.56 µM) | 1 (≈ 1.78 µM) | 0.5 (≈ 0.89 µM) | 2 (≈ 3.56 µM) | 1 (≈ 1.78 µM) | 1 (≈ 1.78 µM) | 2 (≈ 3.56 µM) | 2 (≈ 3.56 µM) | 1 (≈ 1.78 µM) | 1 (≈ 1.78 µM) | – | –
COc1ccc(NCc2cn(-c3ccc(C(=O)O)cc3)nc2-c2cc(C(F)(F)F)cc(C(F)(F)F)c2)cc1 [Compound 4, 4-[3-[3,5-Bis(trifluoromethyl)phenyl]-4-[(4-methoxyanilino)methyl]pyrazol-1-yl] benzoic acid] | 4 (≈ 7.47 µM) | 16 (≈ 29.9 µM) | 16 (≈ 29.9 µM) | 8 (≈ 14.9 µM) | 8 (≈ 14.9 µM) | 8 (≈ 14.9 µM) | 8 (≈ 14.9 µM) | 8 (≈ 14.9 µM) | 4 (≈ 7.47 µM) | 16 (≈ 29.9 µM) | – | –
CSc1ccc(NCc2cn(-c3ccc(C(=O)O)cc3)nc2-c2cc(C(F)(F)F)cc(C(F)(F)F)c2)cc1 [Compound 6, 4-[3-[3,5-Bis(trifluoromethyl)phenyl]-4-[(4-methylsulfanylanilino)methyl]pyrazol-1-yl] benzoic acid] | 1 (≈ 1.81 µM) | 4 (≈ 7.25 µM) | 2 (≈ 3.63 µM) | 2 (≈ 3.63 µM) | 2 (≈ 3.63 µM) | 2 (≈ 3.63 µM) | 2 (≈ 3.63 µM) | 4 (≈ 7.25 µM) | 2 (≈ 3.63 µM) | 4 (≈ 7.25 µM) | 1 to 4 (≈ 1.81 to 7.25 µM) | –
O=C(O)c1ccc(-n2cc(CNc3cccc(F)c3)c(-c3cc(C(F)(F)F)cc(C(F)(F)F)c3)n2)cc1 [Compound 7, 4-[3-[3,5-Bis(trifluoromethyl)phenyl]-4-[(3-fluoroanilino)methyl]pyrazol-1-yl] benzoic acid] | 2 (≈ 3.82 µM) | 8 (≈ 15.3 µM) | 4 (≈ 7.64 µM) | 4 (≈ 7.64 µM) | 4 (≈ 7.64 µM) | 4 (≈ 7.64 µM) | 2 (≈ 3.82 µM) | 4 (≈ 7.64 µM) | 2 (≈ 3.82 µM) | 4 (≈ 7.64 µM) | – | –
O=C(O)c1ccc(-n2cc(CNc3ccc(F)cc3)c(-c3cc(C(F)(F)F)cc(C(F)(F)F)c3)n2)cc1 [Compound 8, 4-[3-[3,5-Bis(trifluoromethyl)phenyl]-4-[(4-fluoroanilino)methyl]pyrazol-1-yl] benzoic acid] | 1 (≈ 1.91 µM) | 4 (≈ 7.64 µM) | 4 (≈ 7.64 µM) | 4 (≈ 7.64 µM) | 2 (≈ 3.82 µM) | 2 (≈ 3.82 µM) | 2 (≈ 3.82 µM) | 4 (≈ 7.64 µM) | 2 (≈ 3.82 µM) | 4 (≈ 7.64 µM) | – | –
O=C(O)c1ccc(-n2cc(CNc3ccc(Cl)cc3)c(-c3cc(C(F)(F)F)cc(C(F)(F)F)c3)n2)cc1 [Compound 9, 4-[3-[3,5-Bis(trifluoromethyl)phenyl]-4-[(4-chloroanilino)methyl]pyrazol-1-yl] benzoic acid] | 1 (≈ 1.85 µM) | 2 (≈ 3.7 µM) | 2 (≈ 3.7 µM) | 2 (≈ 3.7 µM) | 2 (≈ 3.7 µM) | 2 (≈ 3.7 µM) | 1 (≈ 1.85 µM) | 2 (≈ 3.7 µM) | 1 (≈ 1.85 µM) | 2 (≈ 3.7 µM) | – | –
O=C(O)c1ccc(-n2cc(CNc3cccc(Br)c3)c(-c3cc(C(F)(F)F)cc(C(F)(F)F)c3)n2)cc1 [Compound 10, 4-[3-[3,5-Bis(trifluoromethyl)phenyl]-4-[(3-bromoanilino)methyl]pyrazol-1-yl] benzoic acid] | 2 (≈ 3.42 µM) | 4 (≈ 6.85 µM) | 2 (≈ 3.42 µM) | 4 (≈ 6.85 µM) | 2 (≈ 3.42 µM) | 2 (≈ 3.42 µM) | 2 (≈ 3.42 µM) | 2 (≈ 3.42 µM) | 2 (≈ 3.42 µM) | 4 (≈ 6.85 µM) | – | –
O=C(O)c1ccc(-n2cc(CNc3cccc(C(=O)O)c3)c(-c3cc(C(F)(F)F)cc(C(F)(F)F)c3)n2)cc1 [Compound 12, 3-[[3-[3,5-Bis(trifluoromethyl)phenyl]-1-(4-carboxyphenyl)pyrazol-4-yl]methylamino] benzoic acid] | > 32 | > 32 | > 32 | > 32 | > 32 | > 32 | > 32 | > 32 | > 32 | > 32 | – | eliminated the activity
O=C(O)c1ccc(-n2cc(CNc3ccc(F)c(Cl)c3)c(-c3cc(C(F)(F)F)cc(C(F)(F)F)c3)n2)cc1 [Compound 18, 4-[3-[3,5-Bis(trifluoromethyl)phenyl]-4-[(3-chloro-4-fluoro-anilino)methyl]pyrazol-1-yl] benzoic acid] | 1 (≈ 1.79 µM) | 2 (≈ 3.59 µM) | 2 (≈ 3.59 µM) | 1 (≈ 1.79 µM) | 2 (≈ 3.59 µM) | 1 (≈ 1.79 µM) | 1 (≈ 1.79 µM) | 2 (≈ 3.59 µM) | 1 (≈ 1.79 µM) | 2 (≈ 3.59 µM) | – | –
O=C(O)c1ccc(-n2cc(CNc3ccc(Br)c(C(F)(F)F)c3)c(-c3cc(C(F)(F)F)cc(C(F)(F)F)c3)n2)cc1 [Compound 23, 4-[3-[3,5-Bis(trifluoromethyl)phenyl]-4-[[4-bromo-3-(trifluoromethyl)anilino]methyl]pyrazol-1-yl] benzoic acid] | 1 (≈ 1.53 µM) | 2 (≈ 3.07 µM) | 2 (≈ 3.07 µM) | 2 (≈ 3.07 µM) | 1 (≈ 1.53 µM) | 1 (≈ 1.53 µM) | 1 (≈ 1.53 µM) | 2 (≈ 3.07 µM) | 2 (≈ 3.07 µM) | 4 (≈ 6.13 µM) | – | –
O=C(O)c1ccc(-n2cc(CNc3ccc(F)c(F)c3F)c(-c3cc(C(F)(F)F)cc(C(F)(F)F)c3)n2)cc1 [Compound 24, 4-[3-[3,5-Bis(trifluoromethyl)phenyl]-4-[(2,3,4-trifluoroanilino)methyl]pyrazol-1-yl] benzoic acid] | 1 (≈ 1.79 µM) | 2 (≈ 3.58 µM) | 2 (≈ 3.58 µM) | 1 (≈ 1.79 µM) | 2 (≈ 3.58 µM) | 1 (≈ 1.79 µM) | 1 (≈ 1.79 µM) | 2 (≈ 3.58 µM) | 1 (≈ 1.79 µM) | 4 (≈ 7.15 µM) | – | –
O=C(O)c1ccc(-n2cc(CNc3cc(F)c(F)c(F)c3)c(-c3cc(C(F)(F)F)cc(C(F)(F)F)c3)n2)cc1 [Compound 25, 4-[3-[3,5-Bis(trifluoromethyl)phenyl]-4-[(3,4,5-trifluoroanilino)methyl]pyrazol-1-yl] benzoic acid] | 1 (≈ 1.79 µM) | 4 (≈ 7.15 µM) | 4 (≈ 7.15 µM) | 2 (≈ 3.58 µM) | 4 (≈ 7.15 µM) | 2 (≈ 3.58 µM) | 2 (≈ 3.58 µM) | 4 (≈ 7.15 µM) | 2 (≈ 3.58 µM) | 4 (≈ 7.15 µM) | – | –
O=C(O)c1ccc(-n2cc(CNc3ccc(F)c(Cl)c3F)c(-c3cc(C(F)(F)F)cc(C(F)(F)F)c3)n2)cc1 [Compound 27, 4-[3-[3,5-Bis(trifluoromethyl)phenyl]-4-[(3-chloro-2,4-difluoro-anilino)methyl]pyraz-ol-1-yl] benzoic acid] | 1 (≈ 1.74 µM) | 2 (≈ 3.47 µM) | 2 (≈ 3.47 µM) | 1 (≈ 1.74 µM) | 1 (≈ 1.74 µM) | 1 (≈ 1.74 µM) | 1 (≈ 1.74 µM) | 2 (≈ 3.47 µM) | 1 (≈ 1.74 µM) | 2 (≈ 3.47 µM) | – | –
O=C(O)c1ccc(-n2cc(CNc3cc(Cl)c(F)c(Cl)c3F)c(-c3cc(C(F)(F)F)cc(C(F)(F)F)c3)n2)cc1 [Compound 30, 4-[3-[3,5-Bis(trifluoromethyl)phenyl]-4-[(3,5-dichloro-2,4-difluoro-anilino)methyl]pyrazol-1-yl] benzoic acid] | 1 (≈ 1.64 µM) | 2 (≈ 3.28 µM) | 2 (≈ 3.28 µM) | 1 (≈ 1.64 µM) | 1 (≈ 1.64 µM) | 1 (≈ 1.64 µM) | 1 (≈ 1.64 µM) | 2 (≈ 3.28 µM) | 2 (≈ 3.28 µM) | 2 (≈ 3.28 µM) | – | –
